Assay results published in US8846951B2 (AbbVie Inc., priority 2009, dated 2014).
“And” between values parts separate entries of the source, which are not always exact repeats. Identical values can stand only once. “Also recorded” adds a separate entry of the source.

Experiments:
5HT2C receptors [1] = target: T1, 5HT2C receptors (Homo sapiens, UniProt P28335); test: Human 5-HT2C functional assay in 1321N1 cells (intracellular calcium, FLIPR); type: cell-based; design: expressed in transfected cells; host or cells: 1321N1 cells; settings: 5-HT2c agonist activity, maximum calcium response
T1 sequence (P28335 33-458): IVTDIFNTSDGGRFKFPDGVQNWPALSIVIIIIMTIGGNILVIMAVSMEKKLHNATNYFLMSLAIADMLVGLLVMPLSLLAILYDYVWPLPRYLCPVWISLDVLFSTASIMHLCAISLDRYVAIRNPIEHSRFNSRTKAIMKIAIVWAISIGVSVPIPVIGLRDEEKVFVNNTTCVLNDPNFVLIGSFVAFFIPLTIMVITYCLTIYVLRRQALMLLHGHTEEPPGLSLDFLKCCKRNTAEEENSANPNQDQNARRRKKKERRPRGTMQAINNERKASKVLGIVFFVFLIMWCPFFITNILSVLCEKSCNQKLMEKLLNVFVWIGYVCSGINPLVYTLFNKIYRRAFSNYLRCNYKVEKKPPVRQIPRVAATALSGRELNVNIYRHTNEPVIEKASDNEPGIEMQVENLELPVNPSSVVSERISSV
Procedure, shortened: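 Intracellular calcium (Fluo-4, FLIPR peak response) was measured in stably transfected human 5-HT2C 1321N1 cells after overnight serum-free culture. Compounds were applied at final 10^−10 to 10^−5 M either alone or together with 10^−9 M serotonin. Half-maximal effect concentration was derived by four-parameter logistic fitting.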

[2] = target: T2, human serotonin 5-HT2c receptor (Homo sapiens, UniProt P28335); test: Human 5-HT2C receptor radioligand binding assay (agonist site, [125I]DOI); settings: 5-HT2c agonist site; transfected CHO cell membranes; 0.2 nM [125I](±)DOI
T2 construct: expressed in transfected cells; host or cells: CHO cells (membrane homogenates)
T2 sequence (P28335 33-458): T1 sequence (P28335 33-458)
Protocol: (i) Human 5-HT2C Receptor Radioligand Binding Assay
Affinity of compounds for the agonist site of the […], receptor in transfected CHO cells was determined in a radioligand binding assay essentially as described by Bryant, H. U., et al., Life Sciences (1996) 59(15), 1259-1268.

5HT2C receptors [3] = target: T1, 5HT2C receptors; test: Human 5-HT2C functional high throughput screening assay in CHO-K1 cells (calcium flux); type: cell-based; design: expressed in transfected cells; host or cells: CHO-K1 cells; settings: for Emax: CHO-K1, 5-HT2C, maximum functional response as percentage relative to the effect of serotonin; for EC50: EC50, 5-HT2C agonist activity, CHO-K1 cells, calcium flux
Procedure, shortened: (§1)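 Calcium flux in CHO-K1 cells overexpressing each receptor, using Ca4 dye with probenecid and FLIPR detection. Top concentration was 10 μM, diluted 1:10 across 6 points, and efficacy was scaled to serotonin.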

5HT2C receptors [4] = target: T1, 5HT2C receptors; test: Human 5-HT2C functional assay in CHO-K1 cells (96-well, calcium, FLIPR); type: cell-based; design: expressed in transfected cells; settings: 5-HT2c agonist activity, CHO-K1 cells stably transfected
Protocol: (iv) Human 5-HT2C Functional Assay in CHO-K1 Cells
Functional activity was determined by testing the effect of the compounds on intracellular calcium levels in CHO-K1 cells stably transfected with the human 5-HT2C receptor. Cells were seeded into 96-well plates at 60,000 cells/well and grown overnight in tissue culture medium (UltraCHO™ (Lonza), containing 1% dFCS, 250 μg/mL Zeocin, 400 μg/mL Geneticin) at 37° C. and 5% CO2. Growth medium was replaced by medium without dFCS for overnight incubation. Cells were loaded with a fluorescent calcium-sensitive dye in the presence of probenicid according to the manufacturer's protocol (FLIPR Ca4 Assay kit, Molecular Devices). Serial compound dilutions (final concentrations 10^−10 to 10^−5 M) were added to the cells and the maximum calcium response was determined using a FLIPR instrument (Molecular Devices). Concentration-response curves were fitted using a four-parameter logistic equation (GraphPad Prism). The concentration at which the compound exerts half its maximal effect is named the ‘effective concentration 50’ or ‘EC50’ and is listed in Table 5.

5HT2B receptors = target: T3, 5HT2B receptors (Homo sapiens, UniProt P41595); test: Human 5-HT2B functional high throughput screening assay in CHO-K1 cells (calcium flux); type: cell-based; settings: for Emax: CHO-K1; for EC50: EC50, 5-HT2B agonist activity, CHO-K1 cells, calcium flux
T3 construct: expressed in transfected cells; host or cells: CHO-K1 cells
Procedure, shortened: as §1

h-5-HT6 receptor = target: T4, h-5-HT6 receptor (Homo sapiens, UniProt P50406); test: Human 5-HT6 receptor radioligand binding assay (HEK293 membranes, [3H]-LSD); settings: HEK293 membranes expressing h-5-HT6 receptor, 1 nM [3H]-LSD; geometrical mean; read-out: Ki (5-HT6 Agonist Site Radioligand Binding)
T4 construct: expressed in transfected cells; host or cells: HEK293 cells (membranes)
Protocol: (v) Human 5-HT6 Receptor Radioligand Binding Assay
Preparation of Membranes by Ultrasonic Treatment and Differential Centrifugation
Cells from stable clonal cell lines expressing the corresponding receptor (5-HT6) were washed with PBS (without Ca^++, Mg^++) and harvested in PBS with 0.02% EDTA. The cells were collected by centrifugation at 500 g for 10 minutes at 4° C., washed with PBS and centrifuged (500 g, 10 minutes at 4° C.). The pellets were stored at −80° C. until use. For membrane preparation, the thawed cell pellet was resuspended in ice-cold sucrose buffer (0.25 M sucrose, 10 mM HEPES (pH 7.4), 1 mM phenylmethylsulfonyl fluoride (PMSF) in DMSO, 5 μg/ml Pepstatin-A, 3 mM EDTA, 0.025% Bacitracin) and homogenized with a Branson Sonifier W-250 (Settings: Timer 4; Output Control 3; Duty Cycle constant; 2 to 3 cycles). Cell disruption was checked with the aid of a microscope. Remaining unbroken cells were pelleted at 1,000 g for 10 minutes at 4° C. The sucrose buffer supernatant was then centrifuged at 60,000 g for 1 hour at 4° C. (Beckman Ultracentrifuge XL 80). The pellet was resuspended in 30 mL of ice-cold Tris buffer (20 mM TRIS (pH 7.4), 5 μg/mL Pepstatin A, 0.1 mM PMSF, 3 mM EDTA) by pipetting through a 10 mL serological pipette and centrifuged for 1 hour at 4° C. at 60,000 g. A final resuspension was performed in a small volume of ice-cold Tris buffer (see above) by pressing through a serological pipette followed by ultrasonic treatment with a Branson Sonifier W-250 (Settings: Timer 1; Output Control 3; Duty Cycle constant; 1 cycle). Protein concentration was determined (BCA-Kit; Pierce) and aliquots stored at −80° C. or in liquid nitrogen for long-term storage.
Receptor Binding Experiments
All receptor binding experiments were carried out in the corresponding assay buffer in a total volume of 200 μL in the presence of various concentrations of test compound (10^−5 M to 10^−9 M, tenfold serial dilution, duplicate determinations). The assays were terminated by filtration on polyethylenimine (PEI 0.1% or 0.3%) presoaked Packard Unifilter Plates (GF/C or GF/B) with a Tomtec MachIII U 96 well-plate harvester. After the plates had been dried for 2 hours at 55° C. in a drying chamber scintillation cocktail (BetaPlate Scint; PerkinElmer) was added. Radioactivity was measured in a Microbeta Trilux two hours after the addition of the scintillation mixture.
5-HT6 Receptor Binding Assay
HEK293 cells stably expressing the h-5-HT6 receptor (NCBI Reference Sequence XM 001435) were cultured in RPMI1640 medium supplemented with 25 mM HEPES, 10% fetal calf serum and 1-2 mM glutamine. The membrane preparation was performed as described above. […] On the day of the assay, the membranes were thawed, diluted in assay buffer (50 mM Tris-HCl, 5 mM CaCl2, 0.1% ascorbic acid, 10 μM pargyline, pH 7.4) to a concentration of 8 μg protein/assay and homogenized by gentle vortexing. […] Non-specific binding was defined with 1 μM methiothepin. The binding reaction was carried out for 3.5 hours at room temperature. During the incubation, the plates were shaken on a plate shaker at 100 rpm and terminated by filtration on Packard Unifilter GF/C (0.1% PEI) plates, followed by 2 wash cycles with ice-cold 50 mM Tris-HCl, 5 mM CaCl2.
Data derived from liquid scintillation counting were analyzed by iterative non-linear regression analysis with the use of the Statistical Analysis System (SAS): a program similar to “LIGAND” as described by Munson and Rodbard (Anal. Biochem. 1980, 107, 220-239). Fitting was performed according to formulae described by Feldman (Anal. Biochem. 1972, 48, 317-338). IC50 and Ki values were expressed as geometrical mean.

[5] = system: AMP- or PCP-induced hyperactivity; test: Psychostimulant (AMP or PCP)-induced hyperlocomotion in mice; type: in vivo, mouse; settings: for spontaneous activity: after ip test compound, before psychostimulant; for AMP-induced hyperactivity: test compound ip 30 min before d-amphetamine 2.0 mg/kg sc
From the text: (x) Assessment of Effects on Psychostimulant-Induced Hyperlocomotion in Mice
In both humans and experimental animals amphetamine (AMP) profoundly affects motor activity, sensorimotor function, sleep, attention, aggressive and sexual behaviors, learning and memory, operant behaviors, appetite and food intake. In addition, amphetamine induces psychotic reactions in normal individuals and exacerbates symptoms of schizophrenia in patients. In experimental animals several distinct behaviors are considered to be correlates of amphetamine psychosis. For example, amphetamine-induced hyperactivity in rodents is believed to model the psychotic symptoms of schizophrenia. Reversal of these behaviors is used to predict potential antipsychotic activity of drugs in pre-clinical studies.
In humans, phencyclidine (PCP) is known to produce a syndrome of behavioral effects which have many characteristics in common with schizophrenia. Therefore, antagonism of PCP effects might be evidence for antipsychotic efficacy of a compound.
Male NMRI mice (5-week old, Janvier, France) or C57BL/6J mice (6-week old, Janvier, France) were group housed and allowed ad-libitum access to food and water. A 12 hour light/dark cycle was imposed with lights-on period between 0530 and 1730 hours. All testing occurred between 700 and 1300 hours. All procedures were approved by Abbott Institutional Animal Care and Use Committee (USA) or Animal Welfare Officer (Germany) and were conducted in accordance with the National Institutes of Health Guide for Care and Use of Laboratory Animals guidelines and applicable national laws in the facilities accredited by the Association for the Assessment and Accreditation of Laboratory Animal Care.
On the day of experiment, animals were brought from the animal facility into the experimental room and were allowed to acclimatize for at least 30 minutes. Animals were then placed in the test cages for a habituation period of 60 minutes. The animals were then injected ip with the test compound and returned to the test cage. 30 Minutes later the mice were injected with d-amphetamine (2.0 mg/kg, AMP, Sigma, #A5880, sc) or phencyclidine (2.0 mg/kg, PCP, Sigma, #P3029, sc) Sigma, and returned to the test cages for 90 minutes. Each treatment group consisted of 8-10 animals. The data was acquired by Cage rack Photobeam system (SDI, San Diego Instruments, CA). The analyzed data were: fine movements, ambulations and total movements (fine+ambulations). Data was subjected to one- or two-way distribution-free ANOVA followed by Dunnett's and Tukey's post hoc tests.

T3 sequence (P41595 whole entry): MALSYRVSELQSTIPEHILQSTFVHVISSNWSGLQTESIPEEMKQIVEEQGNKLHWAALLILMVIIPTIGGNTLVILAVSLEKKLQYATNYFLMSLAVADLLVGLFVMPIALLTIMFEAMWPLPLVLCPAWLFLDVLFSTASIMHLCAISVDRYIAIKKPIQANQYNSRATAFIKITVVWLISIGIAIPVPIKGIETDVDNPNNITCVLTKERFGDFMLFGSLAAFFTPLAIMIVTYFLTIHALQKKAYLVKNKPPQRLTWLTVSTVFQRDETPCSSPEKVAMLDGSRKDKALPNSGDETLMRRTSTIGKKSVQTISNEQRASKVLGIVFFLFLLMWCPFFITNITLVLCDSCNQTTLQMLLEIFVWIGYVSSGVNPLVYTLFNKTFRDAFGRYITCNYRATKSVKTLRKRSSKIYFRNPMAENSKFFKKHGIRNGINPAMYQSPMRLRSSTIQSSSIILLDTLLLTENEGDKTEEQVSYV
T4 sequence (P50406 whole entry): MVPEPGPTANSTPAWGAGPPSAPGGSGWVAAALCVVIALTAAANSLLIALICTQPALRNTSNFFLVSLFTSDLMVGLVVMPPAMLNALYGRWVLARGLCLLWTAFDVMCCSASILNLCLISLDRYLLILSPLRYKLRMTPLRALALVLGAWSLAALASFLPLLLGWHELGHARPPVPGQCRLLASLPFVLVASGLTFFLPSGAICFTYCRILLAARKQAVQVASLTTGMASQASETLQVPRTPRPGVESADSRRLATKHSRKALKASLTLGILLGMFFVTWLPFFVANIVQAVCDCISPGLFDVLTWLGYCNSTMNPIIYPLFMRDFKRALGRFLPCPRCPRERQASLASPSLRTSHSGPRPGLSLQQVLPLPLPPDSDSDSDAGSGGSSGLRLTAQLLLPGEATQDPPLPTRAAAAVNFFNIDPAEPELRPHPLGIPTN

Row | SMILES | EC50 (5HT2C receptors [1]) | Ki [2] | Emax (5HT2C receptors [3]) | EC50 (5HT2C receptors [3]) | EC50 (5HT2C receptors [4]) | Emax (5HT2B receptors) | EC50 (5HT2B receptors) | Ki (h-5-HT6 receptor) | spontaneous activity [5] | PCP-induced hyperactivity ([5]; test compound ip 30 min before PCP 2.0 mg/kg sc) | AMP-induced hyperactivity [5]
1 | O=C1NC[C@@H]2CNC[C@H]2c2c(F)cccc21 (relative stereo) [Example 67, Trans-10-fluoro-1,2,3,3a,4,5-hexahydrobenzo[c]pyrrolo[3,4-e]azepin-6(10bH)-one] | 6.55 nM | 43 nM | > 120% | 5 nM | 2.5 nM | 110% | 1000 nM and > 10000 nM |  |  |  | 
2 | COc1ccc(CN2C[C@H]3CN(S(=O)(=O)c4cccc(F)c4)Cc4ccccc4[C@@H]3C2)cc1 (relative stereo) [Example 73, Trans-5-(3-fluorophenylsulfonyl)-2-(4-methoxybenzyl)-1,2,3,3a,4,5,6,10b-octahydrobenzo[c]pyrrolo[3,4-e]azepine] |  |  |  |  | > 1000 nM |  |  | 14.3 nM |  |  | 
3 | O=S(=O)(c1cccc(F)c1)N1Cc2ccccc2[C@@H]2CN(Cc3ccc(F)cc3)C[C@H]2C1 (relative stereo) [Example 74, Trans-2-(4-fluorobenzyl)-5-(3-fluorophenylsulfonyl)-1,2,3,3a,4,5,6,10b-octahydrobenzo[c]pyrrolo[3,4-e]azepine] |  |  |  |  | > 10000 nM |  |  | 9.81 nM |  |  | 
4 | O=C1NC[C@H]2CNC[C@@H]2c2ccccc21 [Example 44, (3aR,10bS)-1,2,3,3a,4,5-Hexahydrobenzo[c]pyrrolo[3,4-e]azepin-6(10bH)-one] | 3.02 nM | 9.5 nM | 100% | 1 nM |  | 100% | 500 nM |  | without affecting spontaneous activity | attenuated PCP-induced hyperactivity in mice significantly and in a dose dependent manner; also recorded: attenuating the affect of phencyclidine (PCP) | 
5 | O=C1NC[C@H]2CNC[C@@H]2c2c(F)cc(F)cc21 [Example 106, (3aR,10bS)-8,10-Difluoro-1,2,3,3a,4,5-hexahydrobenzo[c]pyrrolo[3,4-e]azepin-6(10bH)-one] |  |  | > 120% | 0.4 nM |  | 95% | 100 nM |  | without affecting spontaneous activity |  | modestly attenuated AMP-induced hyperactivity in mice in a dose dependent manner; also recorded: attenuating the affect of d-amphetamine (AMP)
6 | CN1C[C@H]2CNC[C@@H]2c2ccc(F)cc2C1=O [Example 225, (3aR,10bS)-8-Fluoro-5-methyl-1,2,3,3a,4,5-hexahydrobenzo[c]pyrrolo[3,4-e]azepin-6(10bH)-one] |  |  | > 120% | 20 nM |  | 110% | 2000 nM |  | without affecting spontaneous activity |  | modestly attenuated AMP-induced hyperactivity in mice; also recorded: attenuating the affect of d-amphetamine (AMP)
